The values that follow come from patent US20250115597A1, “TYK2 INHIBITORS AND COMPOSITIONS AND METHODS THEREOF” (LYNK PHARMACEUTICALS CO. LTD., priority 2021, published 2025).

Molecules are shown by their SMILES.

The test deals with T1, Ba/F3-FL-TYK2-P760L cells (Homo sapiens, UniProt P29597, P760L, cells depend on it).
T1 construct: BaF3-FL-T2P760L (nM)
T1 sequence (P29597 whole entry P760L): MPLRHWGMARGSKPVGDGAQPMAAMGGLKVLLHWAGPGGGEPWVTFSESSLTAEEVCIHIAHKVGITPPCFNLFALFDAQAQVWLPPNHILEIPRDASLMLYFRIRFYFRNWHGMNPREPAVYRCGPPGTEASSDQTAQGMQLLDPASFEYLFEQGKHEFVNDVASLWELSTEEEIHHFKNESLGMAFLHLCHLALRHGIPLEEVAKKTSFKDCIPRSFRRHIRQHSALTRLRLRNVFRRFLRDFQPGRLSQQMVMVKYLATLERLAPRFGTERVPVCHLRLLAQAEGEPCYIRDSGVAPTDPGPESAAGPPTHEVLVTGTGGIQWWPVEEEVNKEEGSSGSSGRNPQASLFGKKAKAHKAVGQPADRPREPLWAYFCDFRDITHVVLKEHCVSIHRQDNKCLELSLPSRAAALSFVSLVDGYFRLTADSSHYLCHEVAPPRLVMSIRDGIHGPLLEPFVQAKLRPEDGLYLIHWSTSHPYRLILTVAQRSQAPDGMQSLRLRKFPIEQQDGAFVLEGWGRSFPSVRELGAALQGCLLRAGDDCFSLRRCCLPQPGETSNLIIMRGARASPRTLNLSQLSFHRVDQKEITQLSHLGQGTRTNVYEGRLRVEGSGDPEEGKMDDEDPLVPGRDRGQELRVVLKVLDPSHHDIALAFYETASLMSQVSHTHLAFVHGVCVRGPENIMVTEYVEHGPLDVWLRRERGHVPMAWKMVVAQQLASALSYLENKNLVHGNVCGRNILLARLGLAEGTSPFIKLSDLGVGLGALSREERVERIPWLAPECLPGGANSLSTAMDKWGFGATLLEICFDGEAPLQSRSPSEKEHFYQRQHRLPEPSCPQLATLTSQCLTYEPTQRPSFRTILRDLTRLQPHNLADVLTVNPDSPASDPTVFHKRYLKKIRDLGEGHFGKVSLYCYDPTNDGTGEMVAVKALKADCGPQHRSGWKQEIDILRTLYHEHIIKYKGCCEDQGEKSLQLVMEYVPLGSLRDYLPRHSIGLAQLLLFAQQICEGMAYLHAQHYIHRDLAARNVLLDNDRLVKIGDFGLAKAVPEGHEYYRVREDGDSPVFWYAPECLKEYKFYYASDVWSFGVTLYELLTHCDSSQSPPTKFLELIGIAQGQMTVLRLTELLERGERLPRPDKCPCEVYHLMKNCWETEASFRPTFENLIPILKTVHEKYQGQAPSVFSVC
In words: Anti-proliferative assay, Ba/F3-FL-TYK2-P760L cells (Cell-Titer Glo). In kind it is cell-based. The settings on record: 72 h, read-out: BaF3-FL-T2P760L IC50. In short, it runs like this: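 Ba/F3 cells made IL-3-independent by TEL-fused or full-length mutant JAK-family kinases, seeded at 2000/well and dosed after 24 h with 9 three-fold dilutions topping at 20 μM. Viability after 72 h at 37 °C, 5% CO2 by Cell-Titer Glo ATP luminescence.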
As to `[2H]C([2H])([2H])NC(=O)c1cnc(NC(=O)C2CC2)cc1Nc1cn(C)c2ccn(CCOC)c(=O)c12` [Example 112, 6-(Cyclopropanecarboxamido)-4-((5-(2-methoxyethyl)-1-methyl-4-oxo-4,5-dihydro-1H-pyrrolo[3,2-c]pyridin-3-yl)amino)-N-(methyl-d3)nicotinamide], the GI50 worked out at 477 nM.
Consider `[2H]C([2H])([2H])NC(=O)c1cnc(NC(=O)C2CC2)cc1Nc1cn(C)c2ccn([C@@H]3CCOC3)c(=O)c12` [Example 114, (R)-6-(cyclopropanecarboxamido)-N-(methyl-d3)-4-((1-methyl-4-oxo-5-(tetrahydrofuran-3-yl)-4,5-dihydro-1H-pyrrolo[3,2-c]pyridin-3-yl)amino)nicotinamide], for which the GI50 is 1100 nM.
Take `[2H]C([2H])([2H])NC(=O)c1cnc(NC(=O)C2CC2)cc1Nc1cn(C)c2ccn([C@H]3CCOC3)c(=O)c12` [Example 115, 6-(Cyclopropanecarbonylamino)-4-[[1-methyl-4-oxo-5-[(3S)-tetrahydrofuran-3-yl]pyrrolo[3,2-c]pyridin-3-yl]amino]-N-(methyl-d3)pyridine-3-carboxamide]: the GI50 amounted to 1100 nM.
Then `[2H]C([2H])([2H])NC(=O)c1cnc(NC(=O)C2CC2)cc1Nc1cn(C)c2ccn(CC(=O)OCC)c(=O)c12` [Example 117, Ethyl 2-(3-((2-(cyclopropanecarboxamido)-5-((methyl-d3)carbamoyl)pyridin-4-yl)amino)-1-methyl-4-oxo-1,4-dihydro-5H-pyrrolo[3,2-c]pyridin-5-yl)acetate], with 249 nM; and `[2H]C([2H])([2H])NC(=O)c1cnc(NC(=O)C2CC2)cc1Nc1cn(C)c2ccn(-c3ccn(C)n3)c(=O)c12` [Example 118, 6-(Cyclopropanecarbonylamino)-4-[[1-methyl-5-(1-methylpyrazol-3-yl)-4-oxo-pyrrolo[3,2-c]pyridin-3-yl]amino]-N-(methyl-d3)pyridine-3-carboxamide], with 1060 nM; and `[2H]C([2H])([2H])NC(=O)c1cnc(NC(=O)C2CC2)cc1Nc1cn(C)c2ccn(-c3cc(C)n(C)n3)c(=O)c12` [Example 119, 6-(Cyclopropanecarbonylamino)-4-[[5-(1,5-dimethylpyrazol-3-yl)-1-methyl-4-oxo-pyrrolo[3,2-c]pyridin-3-yl]amino]-N-(methyl-d3)pyridine-3-carboxamide], with 1510 nM.
With `[2H]C([2H])([2H])NC(=O)c1cnc(NC(=O)C2CC2)cc1Nc1cn(C)c2ccn(-c3cnn(C)c3)c(=O)c12` [Example 120, 6-(Cyclopropanecarboxamido)-N-(methyl-d3)-4-((1-methyl-5-(1-methyl-1H-pyrazol-4-yl)-4-oxo-4,5-dihydro-1H-pyrrolo[3,2-c]pyridin-3-yl)amino)nicotinamide], the GI50 was determined as 1120 nM.
`[2H]C([2H])([2H])NC(=O)c1cnc(Nc2ccc(F)cn2)cc1Nc1cn(C)c2c(F)cn(C)c(=O)c12` [Example 122, 4-((7-Fluoro-1,5-dimethyl-4-oxo-4,5-dihydro-1H-pyrrolo[3,2-c]pyridin-3-yl)amino)-6-((5-fluoropyridin-2-yl)amino)-N-(methyl-d3)nicotinamide]: the GI50 amounted to 34.7 nM.
Then `[2H]C([2H])([2H])NC(=O)c1cnc(Nc2ccc(F)cn2)cc1Nc1cn(C)c2c(F)cn(CC(F)(F)F)c(=O)c12` [Example 124, 4-((7-Fluoro-1-methyl-4-oxo-5-(2,2,2-trifluoroethyl)-4,5-dihydro-1H-pyrrolo[3,2-c]pyridin-3-yl)amino)-6-((5-fluoropyridin-2-yl)amino)-N-(methyl-d3)nicotinamide], with 34.8 nM; and `[2H]C([2H])([2H])NC(=O)c1cnc(NC(=O)C2CC2)cc1Nc1ccc2cnn(C(C)C)c2c1OC` [Example 126, 6-(Cyclopropanecarboxamido)-4-((1-isopropyl-7-methoxy-1H-indazol-6-yl)amino)-N-(methyl-d3)nicotinamide], with 522 nM.
The figure for `[2H]C([2H])([2H])NC(=O)c1cnc(NC(=O)C2CC2)cc1Nc1ccc2cnn(C3CCOCC3)c2c1OC` [Example 127, 6-(Cyclopropanecarboxamido)-4-((7-methoxy-1-(tetrahydro-2H-pyran-4-yl)-1H-indazol-6-yl)amino)-N-(methyl-d3)nicotinamide] is 378 nM.
The figure for `[2H]C([2H])([2H])NC(=O)c1cnc(NC(=O)[C@H]2C[C@@H](C#N)C2)cc1Nc1ccc2cnn(CC)c2c1OC` [Example 128A, 6-((Cis)-3-cyanocyclobutane-1-carboxamido)-4-((1-ethyl-7-methoxy-1H-indazol-6-yl)amino)-N-(methyl-d3)nicotinamide] is 736 nM; for `[2H]C([2H])([2H])NC(=O)c1cnc(NC(=O)[C@H]2C[C@H](C#N)C2)cc1Nc1ccc2cnn(CC)c2c1OC` [Example 128B, 6-((Trans)-3-cyanocyclobutane-1-carboxamido)-4-((1-ethyl-7-methoxy-1H-indazol-6-yl)amino)-N-(methyl-d3)nicotinamide] it is 1710 nM; for `[2H]C([2H])([2H])NC(=O)c1cnc(NC(=O)C2CC2)cc1Nc1ccc2cnn(CCOC)c2c1OC` [Example 130, 6-(Cyclopropanecarboxamido)-4-((7-methoxy-1-(2-methoxyethyl)-1H-indazol-6-yl)amino)-N-(methyl-d3)nicotinamide] it is 357 nM.
In the case of `[2H]C([2H])([2H])NC(=O)c1cnc(NC(=O)C2CC2)cc1Nc1ccc2cnn(C(C)C)c2c1OC([2H])([2H])[2H]` [Example 133, 6-(Cyclopropanecarboxamido)-4-((1-isopropyl-7-(methoxy-d3)-1H-indazol-6-yl)amino)-N-(methyl-d3)nicotinamide], the GI50 came out at 394 nM.
The figure for `[2H]C([2H])([2H])NC(=O)c1cnc(Nc2cnn(C)c2)nc1Nc1ccc2cnn(CC)c2c1OC([2H])([2H])[2H]` [Example 136, 4-((1-Ethyl-7-(methoxy-d3)-1H-indazol-6-yl)amino)-N-(methyl-d3)-2-((1-methyl-1H-pyrazol-4-yl)amino)pyrimidine-5-carboxamide] is 326 nM; for `[2H]C([2H])([2H])NC(=O)c1cnc(Nc2ccn(C3CC3)n2)cc1Nc1ccc2cnn(CC)c2c1OC` [Example 138, 6-((1-Cyclopropyl-1H-pyrazol-3-yl)amino)-4-((1-ethyl-7-methoxy-1H-indazol-6-yl)amino)-N-(methyl-d3)nicotinamide] it is 88.8 nM.
The figure for `[2H]C([2H])([2H])NC(=O)c1cnc(NC(=O)C2CC2)cc1Nc1ccc2cnn(C([2H])([2H])[2H])c2c1OC` [Example 140, 6-(Cyclopropanecarboxamido)-4-((7-methoxy-1-(methyl-d3)-1H-indazol-6-yl)amino)-N-(methyl-d3)nicotinamide] is 82.4 nM; for `[2H]C([2H])([2H])NC(=O)c1cnc(NC(=O)C2CC2)cc1Nc1cc(F)c2cnn(C([2H])([2H])C([2H])([2H])[2H])c2c1OC` [Example 142, 6-(Cyclopropanecarboxamido)-4-((1-(ethyl-d5)-4-fluoro-7-methoxy-1H-indazol-6-yl)amino)-N-(methyl-d3)nicotinamide] it is 169 nM; for `[2H]C([2H])([2H])NC(=O)c1cnc(NC(=O)C2CC2)cc1Nc1ccc2cnn(C3CC3)c2c1OC` [Example 143, 6-(Cyclopropanecarboxamido)-4-((1-cyclopropyl-7-methoxy-1H-indazol-6-yl)amino)-N-(methyl-d3)nicotinamide] it is 108 nM.
The figure for `[2H]C([2H])([2H])NC(=O)c1cnc(NC(=O)C2CC2)cc1Nc1ccc2cnn(C3CC3)c2c1OC([2H])([2H])[2H]` [Example 145, 6-(Cyclopropanecarboxamido)-4-((1-cyclopropyl-7-(methoxy-d3)-1H-indazol-6-yl)amino)-N-(methyl-d3)nicotinamide] is 83.6 nM; for `[2H]C([2H])([2H])NC(=O)c1cnc(Nc2ccn(C3CC3)n2)nc1Nc1cccc(-c2ncn(C)n2)c1OC` [Example 146, 2-((1-Cyclopropyl-1H-pyrazol-3-yl)amino)-4-((2-methoxy-3-(1-methyl-1H-1,2,4-triazol-3-yl)phenyl)amino)-N-(methyl-d3)pyrimidine-5-carboxamide] it is 832 nM.
As for `CNC(=O)c1cnc(NC(=O)C2CC2)cc1Nc1cc(Br)c2nn3c(c2c1OC)CCC3` [Example 155, 4-((6-Bromo-9-methoxy-2,3-dihydro-1H-pyrrolo[1,2-b]indazol-8-yl)amino)-6-(cyclopropanecarboxamido)-N-methylnicotinamide], the GI50 stood at 902 nM.
On to `CNC(=O)c1cnc(NC(=O)C2CC2)cc1Nc1ccc2nn3c(c2c1OC)CCC3` [Example 156, 6-(Cyclopropanecarboxamido)-4-((9-methoxy-2,3-dihydro-1H-pyrrolo[1,2-b]indazol-8-yl)amino)-N-methylnicotinamide], for which the GI50 worked out at 2900 nM.
The figure for `[2H]C([2H])([2H])NC(=O)c1cnc(Nc2ccc(F)cn2)cc1Nc1cn(C)c2c(Cl)cn(C)c(=O)c12` [Example 159, 4-((7-Chloro-1,5-dimethyl-4-oxo-4,5-dihydro-1H-pyrrolo[3,2-c]pyridin-3-yl)amino)-6-((5-fluoropyridin-2-yl)amino)-N-(methyl-d3)nicotinamide] is 28.3 nM; for `[2H]C([2H])([2H])NC(=O)c1cnc(Nc2ccc(F)cn2)cc1Nc1cn(C)c2c(Cl)cn(CC)c(=O)c12` [Example 160, 4-((7-Chloro-5-ethyl-1-methyl-4-oxo-4,5-dihydro-1H-pyrrolo[3,2-c]pyridin-3-yl)amino)-6-((5-fluoropyridin-2-yl)amino)-N-(methyl-d3)nicotinamide] it is 29.7 nM.
For the compound `[2H]C([2H])([2H])NC(=O)c1cnc(Nc2cc(F)ccn2)cc1Nc1cn(C)c2c(Cl)cn(CC)c(=O)c12` [Example 162, 4-((7-Chloro-5-ethyl-1-methyl-4-oxo-4,5-dihydro-1H-pyrrolo[3,2-c]pyridin-3-yl)amino)-6-((4-fluoropyridin-2-yl)amino)-N-(methyl-d3)nicotinamide], the GI50 is 25.9 nM.
